Data: the NIST ThermoML archive (doi:10.1016/j.fluid.2010.10.009)

How the values were obtained:
[1] = 303.15 K; 101.33 kPa; Liquid; Concentric cylinders viscometry
[2] = xn = mol fraction of the nth substance listed; conditions: 101 kPa, Liquid, Concentric cylinders viscometry

CC(C)(C)O [2-methylpropan-2-ol]
Conditions | viscosity [mPa·s]
[1] | 3.387

CC(C)(C)O [2-methylpropan-2-ol] + CCCCCCC
viscosity [mPa·s], [2]
Conditions | 303.15 K | 308.15 K | 313.15 K | 318.15 K | 323.15 K
x1 = 0.103 | 0.3899 | 0.3703 | 0.353 | 0.3329 | 0.3144
x1 = 0.2002 | 0.4118 | 0.3885 | 0.367 | 0.3441 | 0.3201
x1 = 0.3006 | 0.4501 | 0.4228 | 0.3983 | 0.3737 | 0.3489
x1 = 0.3999 | 0.4922 | 0.463 | 0.433 | 0.4062 | 0.3805
x1 = 0.5001 | 0.558 | 0.5194 | 0.4838 | 0.4507 | 0.419
x1 = 0.6001 | 0.6624 | 0.6063 | 0.5587 | 0.5157 | 0.4765
x1 = 0.6996 | 0.8071 | 0.7282 | 0.667 | 0.6022 | 0.5477
x1 = 0.8001 | 1.1 | 0.9711 | 0.8581 | 0.7681 | 0.6836
x1 = 0.9 | 1.699 | 1.426 | 1.214 | 1.044 | 0.9079
x1 = 0.95 | 2.263 | 1.86 | 1.541 | 1.293 | 1.096
x1 = 1 | 3.387 | 2.63 | 2.097 | 1.707 | 1.415

CC(C)(C)O [2-methylpropan-2-ol] + CCCCCCCC
viscosity [mPa·s], [2]
Conditions | 303.15 K | 308.15 K | 313.15 K | 318.15 K | 323.15 K
x1 = 0.1002 | 0.5022 | 0.4758 | 0.4509 | 0.4272 | 0.4044
x1 = 0.2002 | 0.5263 | 0.4972 | 0.47 | 0.4443 | 0.4198
x1 = 0.2996 | 0.558 | 0.525 | 0.4943 | 0.4656 | 0.4377
x1 = 0.4003 | 0.6031 | 0.5644 | 0.5287 | 0.4956 | 0.4646
x1 = 0.5006 | 0.6658 | 0.6186 | 0.5757 | 0.5363 | 0.5
x1 = 0.5998 | 0.7587 | 0.6975 | 0.6429 | 0.5938 | 0.549
x1 = 0.7 | 0.912 | 0.8243 | 0.7485 | 0.6822 | 0.6233
x1 = 0.799 | 1.187 | 1.044 | 0.9254 | 0.8261 | 0.7415
x1 = 0.8499 | 1.438 | 1.236 | 1.075 | 0.9428 | 0.833
x1 = 0.9 | 1.781 | 1.496 | 1.275 | 1.099 | 0.958
x1 = 0.9235 | 2.015 | 1.669 | 1.404 | 1.198 | 1.034
x1 = 0.9499 | 2.353 | 1.913 | 1.584 | 1.333 | 1.136
x1 = 1 | 3.387 | 2.63 | 2.097 | 1.707 | 1.415

CC(C)(C)O [2-methylpropan-2-ol] + CCCCCCCCC
[2], x1 = 1
Conditions | viscosity [mPa·s]
303.15 K | 3.387
308.15 K | 2.63
313.15 K | 2.097
318.15 K | 1.707
323.15 K | 1.415

CC(C)(C)O [2-methylpropan-2-ol] + CCCCCCCCCC
[2], x1 = 1
Conditions | viscosity [mPa·s]
303.15 K | 3.387
308.15 K | 2.63
313.15 K | 2.097
318.15 K | 1.707
323.15 K | 1.415

CCCCCCCCCC [decane]
Conditions | viscosity [mPa·s]
[1] | 0.7838

CCCCCCCCCC [decane] + CC(C)(C)O
viscosity [mPa·s], [2]
Conditions | 303.15 K | 308.15 K | 313.15 K | 318.15 K | 323.15 K
x2 = 0 | 0.7838 | 0.7337 | 0.6883 | 0.6466 | 0.6085
x2 = 0.1003 | 0.7786 | 0.7263 | 0.6791 | 0.6362 | 0.597
x2 = 0.2001 | 0.7925 | 0.7382 | 0.6879 | 0.6422 | 0.6002
x2 = 0.3 | 0.825 | 0.7653 | 0.7104 | 0.6604 | 0.6153
x2 = 0.3997 | 0.8622 | 0.7934 | 0.7326 | 0.6775 | 0.627
x2 = 0.5 | 0.9148 | 0.8404 | 0.7726 | 0.7125 | 0.6566
x2 = 0.5999 | 0.9861 | 0.8974 | 0.8188 | 0.7493 | 0.6869
x2 = 0.6997 | 1.129 | 1.01 | 0.9091 | 0.8219 | 0.7459
x2 = 0.8001 | 1.372 | 1.199 | 1.058 | 0.9404 | 0.8399
x2 = 0.8999 | 1.937 | 1.621 | 1.376 | 1.182 | 1.024
x2 = 0.9499 | 2.366 | 1.948 | 1.614 | 1.357 | 1.155

CCCCCCC [heptane]
Conditions | viscosity [mPa·s]
[1] | 0.3773

CCCCCCC [heptane] + CC(C)(C)O
[2], x2 = 0
Conditions | viscosity [mPa·s]
303.15 K | 0.3773
308.15 K | 0.3603
313.15 K | 0.3432
318.15 K | 0.3269
323.15 K | 0.3106

CCCCCCCCC [nonane]
Conditions | viscosity [mPa·s]
[1] | 0.6323

CCCCCCCCC [nonane] + CC(C)(C)O
viscosity [mPa·s], [2]
Conditions | 303.15 K | 308.15 K | 313.15 K | 318.15 K | 323.15 K
x2 = 0 | 0.6323 | 0.5974 | 0.5652 | 0.5352 | 0.5073
x2 = 0.1012 | 0.6377 | 0.5996 | 0.5644 | 0.532 | 0.502
x2 = 0.2008 | 0.6593 | 0.6177 | 0.5795 | 0.5442 | 0.5114
x2 = 0.3 | 0.6872 | 0.6414 | 0.5995 | 0.5608 | 0.5247
x2 = 0.3999 | 0.7276 | 0.676 | 0.6289 | 0.5857 | 0.5459
x2 = 0.4995 | 0.7904 | 0.7297 | 0.6749 | 0.6251 | 0.5795
x2 = 0.5998 | 0.8796 | 0.8038 | 0.7366 | 0.6766 | 0.6227
x2 = 0.6991 | 1.027 | 0.923 | 0.8336 | 0.7558 | 0.6874
x2 = 0.7997 | 1.297 | 1.136 | 1.003 | 0.8918 | 0.7976
x2 = 0.9 | 1.856 | 1.556 | 1.323 | 1.137 | 0.9883
x2 = 0.9494 | 2.392 | 1.944 | 1.608 | 1.351 | 1.151

CCCCCCCC [octane]
Conditions | viscosity [mPa·s]
[1] | 0.4918

CCCCCCCC [octane] + CC(C)(C)O
[2], x2 = 0
Conditions | viscosity [mPa·s]
303.15 K | 0.4918
308.15 K | 0.4684
313.15 K | 0.447
318.15 K | 0.425
323.15 K | 0.4049
